Test results from DBAASP.
Converted amounts (≈) assume the structure as drawn. “And” between values parts separate entries of the source, which are not always exact repeats. Identical values can stand only once. Blank lines part the entries; values can stand above or below the compound they belong to.

Tests used:
Assay in all cases: ≥ marks a high value that may be exact or a test limit, other limits are often not marked, values filed in µg/mL are converted to µM
Vibrio alginolyticus = system: Vibrio alginolyticus
Streptococcus agalactiae = system: Streptococcus agalactiae
[1] = system: Staphylococcus aureus BCRC 10780
[2] = system: Micrococcus luteus BCRC 11034
[3] = system: Streptococcus pneumoniae BCRC 10794
Vibrio vulnificus 204 = system: Vibrio vulnificus 204
[4] = system: Staphylococcus sp. BCRC 10451
[5] = system: Vibrio harveyi BCRC 13812
Escherichia coli ML-35p = system: Escherichia coli ML-35p
Candida albicans = system: Candida albicans
[6] = system: Pseudomonas aeruginosa PAO1
[7] = system: Klebsiella pneumoniae ATCC 700603
Pseudomonas aeruginosa = system: Pseudomonas aeruginosa
[8] = system: Escherichia coli ATCC 25922
Enterobacter cloacae = system: Enterobacter cloacae
[9] = system: Enterobacter cloacae ATCC 13047
[10] = system: Candida albicans ATCC 2002
[11] = system: Klebsiella pneumoniae ATCC 13883
[12] = system: Staphylococcus aureus ATCC 25923
[13] = system: Haemophilus influenzae ATCC 49247
[14] = system: Staphylococcus aureus ATCC 43300
Staphylococcus aureus = system: Staphylococcus aureus
[15] = system: Haemophilus influenzae ATCC 49766
Klebsiella aerogenes = system: Klebsiella aerogenes
Escherichia coli = system: Escherichia coli
[16] = system: Enterococcus faecalis ATCC 29212
[17] = system: Staphylococcus aureus ATCC 25325
[18] = system: Pseudomonas aeruginosa ATCC 27853
[19] = system: Escherichia coli ATCC 35218
[20] = system: Listeria monocytogenes ATCC 35152
[21] = system: Pseudomonas aeruginosa 919
Staphylococcus aureus MR = system: Staphylococcus aureus MR
[22] = system: Staphylococcus epidermidis PIA 8400
[23] = system: Pseudomonas aeruginosa 910
[24] = system: Pseudomonas aeruginosa 253
[25] = system: Staphylococcus aureus ATCC 29213
[26] = system: Neisseria gonorrhoeae F62
[27] = system: Neisseria gonorrhoeae FA19
Vibrio cholerae non-O1 = system: Vibrio cholerae non-O1
[28] = system: Staphylococcus epidermidis ATCC 12228
Vibrio cholerae non-O139 = system: Vibrio cholerae non-O139
[29] = system: Salmonella enterica subsp. enterica serovar Typhi DMST 22842

Structure (SMILES): CC[C@H](C)[C@H](NC(=O)[C@H](Cc1ccccc1)NC(=O)CNC(C)=O)C(=O)N[C@@H](Cc1ccccc1)C(=O)N[C@@H](Cc1cnc[nH]1)C(=O)N[C@H](C(=O)N[C@H](C(=O)N[C@@H](CCCCN)C(=O)NCC(=O)N[C@@H](CC(C)C)C(=O)N[C@@H](Cc1ccccc1)C(=O)N[C@@H](Cc1cnc[nH]1)C(=O)N[C@@H](C)C(=O)NCC(=O)N[C@@H](CCCCN)C(N)=O)[C@@H](C)CC)[C@@H](C)CC [GFIFHIIKGLFHAGK]
MIC (Vibrio alginolyticus): 14.8 µM (≈ 25.6 µg/mL)
MIC (Streptococcus agalactiae): 29.7 µM (≈ 51.2 µg/mL)
MIC [1]: 14.8 µM (≈ 25.6 µg/mL)
MIC [2]: 14.8 µM (≈ 25.6 µg/mL)
MIC [3]: 29.7 µM (≈ 51.2 µg/mL)
MIC (Vibrio vulnificus 204): ≥ 59.3 µM
MIC [4]: 3.71 µM (≈ 6.4 µg/mL)
MIC [5]: 7.42 µM (≈ 12.8 µg/mL)

Structure (SMILES): CC(C)C[C@H](NC(=O)[C@H](CCCCN)NC(=O)[C@H](CCCCN)NC(=O)[C@H](Cc1ccccc1)NC(=O)[C@H](Cc1ccccc1)NC(=O)[C@@H](N)CCCCN)C(=O)N[C@@H](CCCCN)C(=O)N[C@@H](CCCCN)C(=O)N[C@@H](C)C(=O)N[C@H](C(=O)N[C@@H](CCCCN)C(=O)N[C@@H](CCCCN)C(=O)NCC(=O)N[C@@H](Cc1ccccc1)C(=O)N[C@@H](CCCCN)C(=O)N[C@@H](CCCCN)C(=O)N[C@@H](Cc1ccccc1)C(=O)N[C@@H](C)C(=O)N[C@@H](CCCCN)C(=O)N[C@H](C(=O)O)C(C)C)C(C)C [KFFKKLKKAVKKGFKKFAKV]
MIC (Escherichia coli ML-35p): 2.61 µM (≈ 6.25 µg/mL)
MIC (Candida albicans): > 83.4 µM
MIC [6]: 5.21 µM (≈ 12.5 µg/mL)
MIC [7]: 1.3 µM (≈ 3.13 µg/mL)
MIC (Pseudomonas aeruginosa): 5.21 µM (≈ 12.5 µg/mL)
MIC [8]: 5.21 µM (≈ 12.5 µg/mL)
MIC (Enterobacter cloacae): ≥ 41.7 µM
MIC [9]: ≥ 41.7 µM
MIC [10]: ≥ 83.4 µM
MIC [11]: 2.61 µM (≈ 6.25 µg/mL)
MIC [12]: 5.21 µM (≈ 12.5 µg/mL)
MIC [13]: 1.3 µM (≈ 3.13 µg/mL)
MIC [14]: 1.3 µM (≈ 3.13 µg/mL)
MIC (Staphylococcus aureus): 5.21 µM (≈ 12.5 µg/mL)
MIC [15]: 2.61 µM (≈ 6.25 µg/mL)
MIC (Klebsiella aerogenes): ≥ 41.7 µM
MIC (Escherichia coli): 5.21 µM (≈ 12.5 µg/mL)
MIC [16]: 10.4 µM (≈ 25 µg/mL)

Structure (SMILES): CC(C)C[C@H](NC(=O)[C@H](CCCCN)NC(=O)[C@@H](N)CCCCN)C(=O)NCC(=O)N[C@@H](CCC(=O)O)C(=O)N1CCC[C@H]1C(=O)N[C@@H](CO)C(=O)N[C@@H](CS)C(=O)N[C@@H](CC(N)=O)C(=O)N[C@@H](CCCCN)C(=O)N[C@@H](CC(C)C)C(=O)N[C@@H](CCCCN)C(N)=O [KKLGEPSCNKLK]
MIC [20]: 22.3 µM (≈ 30 µg/mL)
MIC [8]: 22.3 µM (≈ 30 µg/mL)
MIC [11]: 29.7 µM (≈ 40 µg/mL)
MIC [12]: 18.6 µM (≈ 25 µg/mL)
MIC [18]: 37.2 µM (≈ 50 µg/mL)

Structure (SMILES): CC(C)C[C@H](N)C(=O)N[C@H](C(=O)N[C@@H](Cc1ccc(O)cc1)C(=O)N[C@H]1CSSC[C@@H](C(=O)N[C@H](C(=O)N[C@H](C(=O)N[C@H](C(N)=O)C(C)C)[C@@H](C)O)C(C)C)NC(=O)[C@H](Cc2ccccc2)NC(=O)[C@H](CCCN=C(N)N)NC(=O)[C@H](CCCN=C(N)N)NC(=O)[C@H](CCCN=C(N)N)NC1=O)[C@@H](C)O [LTYCRRRFCVTV]
MIC [26]: 0.45 µM (≈ 0.681 µg/mL)
MIC [27]: 1.37 µM (≈ 2.07 µg/mL)

Structure (SMILES): CC(C)[C@H](NC(=O)CNC(=O)[C@@H](N)CC(N)=O)C(=O)N[C@@H](CCC(N)=O)C(=O)N1CCC[C@H]1C(=O)N[C@@H](Cc1c[nH]c2ccccc12)C(=O)N[C@@H](Cc1ccc(O)cc1)C(=O)N[C@@H](CCCCN)C(=O)N[C@@H](Cc1c[nH]c2ccccc12)C(=O)N[C@@H](Cc1c[nH]c2ccccc12)C(=O)N[C@@H](CCCCN)C(=O)N[C@@H](Cc1c[nH]c2ccccc12)C(=O)N[C@@H](Cc1c[nH]c2ccccc12)C(=O)N[C@@H](CCCCN)C(=O)N[C@@H](CCCCN)C(=O)N[C@@H](Cc1c[nH]c2ccccc12)C(=O)N[C@@H](Cc1c[nH]c2ccccc12)C(N)=O [NGVQPWYKWWKWWKKWW]
MIC (Vibrio cholerae non-O1): ≥ 36.5 µM
MIC [8]: > 36.5 µM
MIC [28]: 36.5 µM (≈ 91 µg/mL)
MIC [12]: > 36.5 µM
MIC (Vibrio cholerae non-O139): ≥ 36.5 µM
MIC [29]: ≥ 36.5 µM

Continued, values first:

MIC [17]: ≥ 56.3 µM
MIC [18]: 52 µM (≈ 86.2 µg/mL)
MIC [19]: ≥ 56.1 µM
MIC [16]: 47.2 µM (≈ 78.3 µg/mL)
Structure (SMILES): CC(C)[C@H](NC(=O)[C@H](Cc1cnc[nH]1)NC(=O)[C@H](C)NC(=O)[C@H](C)NC(=O)[C@H](CCCCN)NC(=O)[C@@H](N)CCCCN)C(=O)NCC(=O)N[C@@H](CCCCN)C(=O)N[C@@H](Cc1cnc[nH]1)C(=O)N[C@H](C(=O)NCC(=O)N[C@@H](CCCCN)C(=O)N[C@@H](C)C(=O)N[C@@H](C)C(=O)N[C@@H](CCCCN)C(=O)N[C@@H](CCCCN)C(=O)O)C(C)C [KKAAHVGKHVGKAAKK]

MIC [21]: 4 µM (≈ 5.25 µg/mL)
MIC [6]: 4 µM (≈ 5.25 µg/mL)
MIC (Staphylococcus aureus MR): 13 µM and 25.1 µM
MIC [8]: 6.09 µM (≈ 7.99 µg/mL)
MIC [22]: 3.05 µM (≈ 4 µg/mL)
MIC (Staphylococcus aureus): 6.09 µM (≈ 7.99 µg/mL)
MIC [23]: 8 µM (≈ 10.5 µg/mL)
MIC [18]: 13 µM and 6.09 µM
MIC [24]: 5.66 µM (≈ 7.42 µg/mL)
MIC [16]: 25.1 µM (≈ 33 µg/mL)
MIC [25]: 6.09 µM (≈ 7.99 µg/mL)
Structure (SMILES): CC[C@H](C)[C@H](NC(=O)[C@H](CCCN=C(N)N)NC(=O)[C@H](Cc1c[nH]c2ccccc12)NC(=O)[C@H](CCCN=C(N)N)NC(=O)[C@H](CCCN=C(N)N)NC(=O)[C@@H](N)CCCCN)C(=O)N[C@@H](Cc1c[nH]c2ccccc12)C(=O)N[C@@H](CC(C)C)C(=O)N[C@H](C(N)=O)C(C)C [KRRWRIWLV]
